Measurements: US20030166161A1, “Gene that imparts selective proliferative activity” (priority 1997, published 2003)

Columns and labels:
BaF/GCRTmR clones = test: XTT proliferation assay of BaF/GCRTmR clones; assay type: cell-based; conditions: for growth of GCRTmR-transduced Ba/F3 cells with stimulator: IL-3, 10^−9 M G-CSF, 10^−7 M Tm or 10^−7 M E2, FIG. 17B-D
Description: (§1) Cultures containing IL-3 or G-CSF were split every three to four days, while Tm-containing cultures were diluted every four days. Cell proliferation assay was performed periodically in 96-well microtiter plates by the 2,3-bis (2-methoxy-4-nitro-5-sulfophenyl)-5-[(phenylamino)-carbonyl]-2H-tetrazolium hydroxide (XTT) method using Cell Proliferation Kit II (Boehringer Mannheim, Mannheim, Germany) [Scudiero D A, et al., Cancer Res., (1988) 48: 4827-4833]. For hormone dose-response analysis, transduced Ba/F3 cells were stimulated by various concentrations of Tm or E2, and XTT assay was performed on day zero and day four. The final concentration of ethanol used to dilute Tm and E2 was 0.1% in all the culture conditions.

BaF/ΔGCRTmR clones = test: XTT proliferation assay of BaF/ΔGCRTmR clones; assay type: cell-based; conditions: 10^−9 M G-CSF or 10^−7 M Tm; FIG. 17E-G
Description: as §1

Parental Ba/F3 cells = test: XTT proliferation assay of parental Ba/F3 cells; assay type: cell-based; conditions: IL-3, 10^−9 M G-CSF, 10^−7 M Tm, 10^−7 M E2; FIG. 17A
Description: as §1

[1] = test system: parental and transduced Ba/F3 cultures; test: Toxicity of E2 or Tm in Ba/F3 cultures with IL-3; conditions: concentrations up to 10^−6 M
Description: as §1

[2] = test system: Ba/F3 cells into which pCMX-GCRER was introduced; test: XTT proliferation assay, Ba/F3 cells with pCMX-GCRER; assay type: cell-based; conditions: for proliferation of IL-3-independent cells by stimulation: stimulation with G-CSF or estradiol, FIG. 3
From the text: The Ba/F3 cells into which “pCMX-GCRER” was introduced were examined.

[3] = test system: Ba/F3 cells into which pCMX-GCRΔ(5-195)/ER was introduced; test: XTT proliferation assay, Ba/F3 cells with pCMX-GCRΔ(5-195)/ER; assay type: cell-based; conditions: G-CSF or estradiol stimulation, FIG. 5
From the text: The Ba/F3 cells into which “pCMX-GCRΔ(5-195)/ER” was introduced were then examined.

[4] = test system: Ba/F3 cells into which pCMX-GRΔ(5-195, 725-756)/ER was introduced; test: XTT proliferation assay, Ba/F3 cells with pCMX-GCRΔ(5-195, 725-756)/ER; assay type: cell-based; conditions: estrogen or G-CSF stimulation
GCRER-expressing Ba/F3 = conditions: Ito K, et al., Blood (1997), cited from earlier work
Ba/F3 cells = test: MTS cell proliferation assay of Ba/F3 cells transduced with Mpl chimeric genes; assay type: cell-based
Description: BOSC23 cells were transfected with MSCV/ΔGCR-ER orMSCV/Mpl-ER or MSCV/ΔGCR-Mpl-ER or MSCV/ΔGCR-Mpl-TmR-IRES-EGFP using Transfection MBS Mammalian Transfection Kit (Stratagene) and the viral supernatants were harvested on day two post-transfection. Fibronectin-assisted transduction of IL3-dependentBa/F3 cells was carried out on 6-well plates precoated with CH296 fibronectin fragment (Retronectin; Takara Shuzo) according to a standard procedure. After retroviral infection, ΔGCR-Mpl-TmR-IRES-EGFP transduced Ba/F3 cells (BaF/ΔGCR-Mpl-TmR) were selected with EPICS Elite ESP Cell Sorter. GFP-positive cells were […] and were cloned by limiting dilution with 10^−7 M 4-hydroxytamoxifen (Tm).
Cell proliferation assay was periodically performed using CellTier 96 Aqueous One Solution Cell Proliferation Assay {3-(4,5-dimethylthiazol-2-yl)-5-(3-carboxymethoxyphenyl)-2-(4-sulfophenyl)-2H-tetrazolium (MTS); Promega, Madison, Wis.} essentially according to the manufacturer's instruction. In brief, 20 μl per well of MTS-labeling mixture was added. After the incubation at 37° C. for 2 hours, the spectrophotometeical absorbance was measured at the wave length of 490 nm and 650 nm.

[5] = XTT day four vs day zero, FIG. 19

Molecule | optimal concentration of Tm to stimulate BaF/GCRTmR (BaF/GCRTmR clones) | response to 10 M Tm, clone 3 (BaF/GCRTmR clones; BaF/GCRTmR clone 3, 10 M Tm as printed) | growth of GCRTmR-transduced Ba/F3 cells with stimulator (BaF/GCRTmR clones) | Tm concentration at which all three clones grew well (BaF/GCRTmR clones; [5]) | time until cells stopped growing and died upon removal of Tm (BaF/GCRTmR clones; long-term culture without IL-3, FIG. 18) | time Tm alone could support the cells in long-term culture (BaF/GCRTmR clones; without IL-3, FIG. 18) | growth of BaF/ΔGCRTmR clones with stimulator (BaF/ΔGCRTmR clones) | support of untransduced Ba/F3 by stimulator (Parental Ba/F3 cells) | toxic effects [1] | estradiol concentrations at which cell proliferation was observed ([2]; estradiol varied between 10^−14 and 10^−7 M, FIG. 4) | proliferation of IL-3-independent cells by stimulation [2] | cell proliferation by stimulation [3] | cell proliferation by stimulation [4] | response to 10^−6 M E2, clone 3 (BaF/GCRTmR clones; BaF/GCRTmR clone 3, 10^−6 M E2) | response to 10^−6 M E2, the other clones (BaF/GCRTmR clones; BaF/GCRTmR clones 1 and 2, 10^−6 M E2) | E2 concentration up to which no growth was observed (BaF/GCRTmR clones; [5]) | E2 concentration inducing proliferation of GCRER-expressing Ba/F3 (GCRER-expressing Ba/F3) | E2 dose optimal to support Ba/F3 cells expressing GCRER or ΔGCRER (GCRER-expressing Ba/F3; previous study) | growth response to TPO in the absence of IL-3 (Ba/F3 cells; 100 ng/ml rhTPO) | growth response to estrogen (E2) in the absence of IL-3 (Ba/F3 cells; 10^−7M β-estradiol)
4-hydroxytamoxifen [Tm] | 10^−7-10^−6 M | partially responded | grew continuously | 10^−7-10^−6 M | ≤ 24 h | at least 36 days | proliferated | did not support | neither reagent showed toxic effects | – | – | – | – | – | – | – | – | – | – | –
C[C@]12CC[C@@H]3c4ccc(O)cc4CC[C@H]3[C@@H]1CC[C@@H]2O [estradiol, β-estradiol] | – | – | had no effect | – | – | – | – | did not support | – | 10^−9 to 10^−7 M | proliferated | caused cell proliferation | cell proliferation was caused | limited response | inert | up to 10^−7 M | ≥ 10^−10 M | 10^−7 M | – | –
G-CSF: cytokine (hematopoietic factor); human G-CSF provided by Chugai Pharmaceuticals (protein) TPLGPASSLPQSFLLKCLEQVRKIQGDGAALQEKLCATYKLCHPEELVLLGHSLGIPWAPLSSCPSQALQLAGCLSQLHSGLFLYQGLLQALEGISPELGPTLDTLQLDVADFATTIWQQMEELGMAPALQPTQGAMPAFASAFQRRAGGVLVASHLQSFLEVSYRVLRHLAQP | – | – | grew continuously | – | – | – | did not respond | did not support | – | – | proliferated | blocked | no response | – | – | – | – | – | – | –
Mpl-ER: fusion protein between Mpl and ER (protein) QDVSLLASDSEPLKCFSRTFEDLTCFWDEEEAAPSGTYQLLYAYPREKPRACPLSSQSMPHFGTRYVCQFPDQEEVRLFFPLHLWVKNVFLNQTRTQRVLFVDSVGLPAPPSIIKAMGGSQPGELQISWEEPAPEISDFLRYELRYGPRDPKNSTGPTVIQLIATETCCPALQRPHSASALDQSPCAQPTMPWQDGPKQTSPSREASALTAEGGSCLISGLQPGNSYWLQLRSEPDGISLGGSWGSWSLPVTVDLPGDAVALGLQCFTLDLKNVTCQWQQQDHASSQGFFYHSRARCCPRDRYPIWENCEEEEKTNPGLQTPQFSRCHFKSRNDSIIHILVEVTTAPGTVHSYLGSPFWIHQAVRLPTPNLHWREISSGHLELEWQHPSSWAAQETCYQLRYTGEGHQDWKVLEPPLGARGGTLELRPRSRYRLQLRARLNGPTYQGPWSSWSDPTRVETATETAWISLVTALHLVLGLSAVLGLLLLRWQFPAHYRRLRHALWPSLPDLHRVLGQYLRDTAALSPPKATVSDTCEEVEPSLLEILPKSSERTPLPLCSSQAQMDYRRLQPSCLGTMPLSVCPPMAESGSCCTTHIANHSYLPLSYWQQPGTSGDMRAANLWPSPLVIKHTKKNSPALSLTADQMVSALLDAEPPLIYSEYDPSRPFSEASMMGLLTNLADRELVHMINWAKRVPGFGDLNLHDQVHLLECAWLEILMIGLVWRSMEHPGKLLFAPNLLLDRNQGKCVEGMVEIFDMLLATSSRFRMMNLQGEEFVCLKSIILLNSGVYTFLSSTLKSLEEKDHIHRVLDKINDTLIHLMAKAGLTLQQQHRRLAQLLLILSHIRHMSNKGMEHLYNMKCKNVVPLYDLLLEMLDAHRLHAPASRMGVPPEEPSQSQLTTTSSTSAHSLQTYYIPPEAEGFPNTI | – | – | – | – | – | – | – | – | – | – | – | – | – | – | – | – | – | – | acquired the ability to proliferate | acquired the ability to proliferate
